Experimental data from PMC12711892, “A genome-wide CRISPR screen identifies GRA38 as a key regulator of lipid homeostasis during Toxoplasma gondii adaptation to lipid-rich conditions” (Nature Communications, 2025).

Target: T1, GRA38-6xHis (Toxoplasma gondii, UniProt A0A7J6JXD8)
T1 construct: gene TGRH88_051660; signal peptide (first 23 residues) removed; C-terminal 6xHis in pET-29b(+), codon-optimised, E. coli BL21; tag kept
Experiment: malachite green phosphate release assay (PAP activity)
Type: biochemical
Settings: read-out: % inhibition at 1 mM

T1 sequence (A0A7J6JXD8 entry or part of it): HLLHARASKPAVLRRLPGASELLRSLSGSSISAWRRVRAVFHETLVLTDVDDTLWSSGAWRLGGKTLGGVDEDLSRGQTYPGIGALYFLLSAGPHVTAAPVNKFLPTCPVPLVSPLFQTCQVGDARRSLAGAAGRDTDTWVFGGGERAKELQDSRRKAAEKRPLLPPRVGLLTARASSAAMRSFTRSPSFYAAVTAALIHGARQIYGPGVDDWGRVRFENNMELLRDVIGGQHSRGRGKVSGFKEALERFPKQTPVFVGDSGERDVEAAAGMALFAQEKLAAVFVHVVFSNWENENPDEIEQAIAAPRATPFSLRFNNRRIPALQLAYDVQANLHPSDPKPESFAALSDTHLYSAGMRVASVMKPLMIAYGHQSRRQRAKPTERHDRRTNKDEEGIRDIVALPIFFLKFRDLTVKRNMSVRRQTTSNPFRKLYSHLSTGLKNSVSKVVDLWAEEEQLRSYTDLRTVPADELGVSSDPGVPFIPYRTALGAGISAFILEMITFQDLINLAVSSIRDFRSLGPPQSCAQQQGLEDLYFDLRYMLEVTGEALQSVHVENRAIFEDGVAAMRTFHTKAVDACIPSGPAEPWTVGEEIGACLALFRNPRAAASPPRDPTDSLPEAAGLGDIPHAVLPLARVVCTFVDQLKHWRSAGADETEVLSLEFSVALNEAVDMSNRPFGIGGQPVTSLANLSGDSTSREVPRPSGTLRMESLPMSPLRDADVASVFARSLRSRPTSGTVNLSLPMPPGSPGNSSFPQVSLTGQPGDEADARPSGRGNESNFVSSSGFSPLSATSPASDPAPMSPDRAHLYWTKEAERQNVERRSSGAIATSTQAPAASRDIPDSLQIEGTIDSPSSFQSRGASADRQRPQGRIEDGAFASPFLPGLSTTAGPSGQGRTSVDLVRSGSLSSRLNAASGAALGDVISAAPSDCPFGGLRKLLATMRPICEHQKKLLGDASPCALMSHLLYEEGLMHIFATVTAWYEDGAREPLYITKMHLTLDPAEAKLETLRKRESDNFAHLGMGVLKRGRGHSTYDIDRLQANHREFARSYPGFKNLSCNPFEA

## O=CC(=O)c1ccccc1 [phenylglyoxal]
  inhibition at 1000 µM: 45%
